The subject of the experiment is splenocytic CD4+ T cells. The experiment is described as follows: CFSE proliferation of CD4+ T cells after in vitro peptide restimulation. Format: cell-based, mouse. As to conditions: mice immunized s.c. twice with 50 µg peptide in IFA; splenocytes restimulated with 10 µg/mL peptide for 8 days. The protocol: To screen the immunodominance of epitopic peptide in the induction of RSV-F specific Th1/Th2 expression, HLA-A*0201 transgenic C57BL/6 mice were anesthetized with isoflurane and immunized with 1×10^7 pfu/50 µL of rAd-F0 or rAd-LacZ or 1×10^4 live RSV B1 via the intranasal (i.n.) route. Twenty days later, the mice were given booster immunization i.n. with the same dose. After 10 days of boost, mice were sacrificed and splenocytes were isolated for the cytokine ELISPOT assay. […] Mice body weight was monitored daily.
The splenocytes were isolated, labeled with 5-(6)-carboxyfluorescein diacetate succinimidyl ester (CFSE) (Sigma-Aldrich) and stimulated in vitro with 10 µg/mL of the synthetic peptides for 4 or 8 days. Proliferation of splenocytic CD4^+ and CD8^+ T cells was analyzed by flow cytometry (BD FACSCalibur) using PE-Cy5-labeled specific antibody against CD4 (eBioscience) or CD8 (eBioscience), respectively. Cell division index (CDI), a ratio of CFSE-diluted CD4^+ or CD8^+ T cells stimulated by peptide to CFSE-diluted unstimulated CD4^+ or CD8^+ T cells, was calculated as shown below; [drawing 1] […]
Figure 2 Epitope-specific CD4^+ and CD8^+ T-cell activation in peptide-immunized HLA-A*0201 transgenic mice. […] Proliferation of CD4^+ (A) or CD8^+ (B) lymphocytes in response to the different CD8 epitopes was analyzed by flow cytometry using anti-CD4 or CD8 antibodies conjugated with PE-Cy5. […]

With “YMLTNSELL [peptide 14, HLA-A*0201-restricted 9-mer synthetic peptide from F protein of RSV-B1 strain]”, the “proliferation of CD4+ T cells (cell division index)” value is “insignificant proliferation”.

These data come from PMC3183052, “Immunoprotectivity of HLA-A2 CTL Peptides Derived from Respiratory Syncytial Virus Fusion Protein in HLA-A2 Transgenic Mouse” (PLoS ONE, 2011).
